{
  "source": "patent US8148070B2",
  "about": "“Genetic polymorphisms associated with coronary events and drug response, methods of detection and uses thereof” (Celera Corporation, priority 2007, dated 2012)",
  "key": {"WOSCOPS patients": {"system": "WOSCOPS patients", "assay": "WOSCOPS nested case-control study: pravastatin vs placebo, primary CHD in subgroups defined by genotype", "type": "in vivo, human", "conditions": "for Case (patients with coronary event): pravastatin arm; for risk reduction (coronary events) / OR, Effect of Pravastatin on MI and CHD: pravastatin vs placebo", "from_the_text": "In order to identify genetic markers associated with CHD (particularly MI, including recurrent MI) or the effect of statin treatment on CHD, samples were genotyped in two clinical trials: the Cholesterol and Recurrent Events (CARE) study (a randomized multicentral double-blinded trial on secondary prevention of MI with pravastatin (Pravachol®); Sacks et al., Am. J. Cardiol. 68: 1436-1446 [1991]), and the West of Scotland Coronary Prevention Study (WOSCOPS) study (a randomized multicentral double-blinded trial on primary prevention of CHD with pravastatin (Pravachol®); Shepherd et al., N Eng J Med 333 (20), pp. 1301-7, Nov. 16, 1995; Packard et al., N Eng J Med 343 (16), pp. 1148-55, Oct. 19, 2000).\nThe designs of the original WOSCOPS cohort and the nested case-control study have been described (Shepherd et al., N Eng J Med 333 (20), pp. 1301-7, Nov. 16, 1995; Packard et al., N Eng J Med 343 (16), pp. 1148-55, Oct. 19, 2000). The objective of the WOSCOPS trial was to assess pravastatin efficacy at reducing risk of primary MI or coronary death among Scottish men with hypercholesterolemia (fasting LDL cholesterol>155 mg/dl). Participants in the WOSCOPS study were 45-64 years of age and followed for an average of 4.9 years for coronary events. The nested case-control study included as cases all WOSCOPS patients who experienced a coronary event (confirmed nonfatal MI, death from CHD, or a revascularization procedure; N=580). Controls were age- and smoking-matched to unaffected patients.\nIn analyzing the CARE patients, statistical analysis was performed with SAS version 9. Cox proportional hazard models (Wald tests) were used in CARE to assess the association of genotype with both the risk of incident MI in the placebo arm and the effect of pravastatin on MI compared to placebo in subgroups defined by genotypes. In analyzing the WOSCOPS patients, a conditional logistic regression model was used in WOSCOPS given that the controls had been previously matched to the cases. The column entitled “On-trial MI” lists the number of patients who suffered a recurrent MI during the clinical trial period.\nHR stands for Hazard Ratio, which is a concept similar to Odds Ratio (OR). The HR in event-free survival analysis is the effect of an explanatory variable on the hazard or risk of an event. For examples, it describes the likelihood of developing MI based on comparison of rate of coronary events between carriers of the certain allele and noncarriers; therefore, HR=1.5 would mean that carriers of the certain allele have 50% higher risk of coronary events during the study follow up than non-carriers. HR can also describe the effect of statin therapy on coronary events based on comparison of rate of coronary events between patient treated with statin and patient treated with placebo (or other statin) in subgroups defined by SNP genotype; therefore, HR=0.5 would mean that, for example, carriers of the certain allele, had 50% reduction of coronary events by statin therapy as compared to placebo. In Table 6, p interaction values were calculated. An interaction (or effect modification) is formed when a third variable modifies the relation between an exposure and outcome. […] Genotype and drug interaction is present when the effect of statins (incidence rate of disease in statin-treated group, as compared to placebo) differs in patients with different genotypes. The hCV3054799 risk allele predicted risk of MI in CARE and was associated with odds of CHD in WOSCOPS."}, "PROVE-IT patients": {"system": "PROVE-IT patients", "assay": "PROVE-IT (PROVE IT-TIMI 22) genetic study: high-dose atorvastatin vs standard-dose pravastatin, death or major cardiovascular events by KIF6 719Arg carrier status", "type": "in vivo, human", "experimental": "Patients were followed for 18 to 36 months, with an average follow-up of 24 months.\nOf the 1,724 patients who met the criteria listed above, 1344 (78.0%) were male. […] This study was approved by institutional review boards of the Brigham and Women's Hospital and all participating centers.\nKIF6 genotypes were determined using allele—specific real-time PCR as previously described. Cox proportional hazard models (Wald tests) were used to assess the effect of atorvastatin-treatment on incident CHD in the KIF6 719Arg carriers and noncarriers. Continuous variables tested were age, baseline LDL-C, and baseline HDL-C levels. Categorical variables tested were smoking (current versus non-current), hypertension, and baseline diabetes. All reported p values are two-sided."}},
  "data": [
    {"smiles": "CC[C@H](C)C(=O)O[C@H]1C[C@H](O)C=C2C=C[C@H](C)[C@H](CC[C@@H](O)C[C@@H](O)CC(=O)O)[C@H]21", "note": "[Pravastatin, pravastatin]", "values": [
      {"measurement": "OR, Adjusted (CHD, pravastatin vs placebo)", "setting": "WOSCOPS patients; AA (noncarriers), matched and adjusted", "result": 0.91},
      {"measurement": "OR, Matched (CHD, pravastatin vs placebo)", "setting": "WOSCOPS patients; AA (noncarriers), matched for age and smoking", "result": 0.94},
      {"measurement": "Case (patients with coronary event)", "setting": "WOSCOPS patients; AA, 213 controls", "result": "81 number of patients"},
      {"measurement": "OR, Matched (CHD, pravastatin vs placebo)", "setting": "WOSCOPS patients; GG + GA (719Arg carriers), cases and controls matched for age and smoking", "result": 0.50},
      {"measurement": "OR, Adjusted (CHD, pravastatin vs placebo)", "setting": "WOSCOPS patients; GG + GA (719Arg carriers), matched and adjusted for hypertension, diabetes, BMI, LDL-C, HDL-C", "result": 0.50},
      {"measurement": "Case (patients with coronary event)", "setting": "WOSCOPS patients; GG + GA, 330 controls", "result": "108 number of patients"},
      {"measurement": "risk reduction (coronary events)", "setting": "WOSCOPS patients; carriers of the KIF6 719Arg allele, significant", "result": 50, "unit": "%"},
      {"measurement": "risk reduction (coronary events)", "setting": "WOSCOPS patients; noncarriers, insignificant", "result": 9, "unit": "%"},
      {"measurement": "OR, Effect of Pravastatin on MI and CHD", "setting": "WOSCOPS patients; hCV3054808 genotype AA", "result": 0.55},
      {"measurement": "OR, Effect of Pravastatin on MI and CHD", "setting": "WOSCOPS patients; hCV3054808 genotype AC", "result": 0.52},
      {"measurement": "OR, Effect of Pravastatin on MI and CHD", "setting": "WOSCOPS patients; hCV3054808 genotype CC", "result": 0.89},
      {"measurement": "OR, Effect of Pravastatin on MI and CHD", "setting": "WOSCOPS patients; hCV3054813 genotype CC", "result": 0.64},
      {"measurement": "OR, Effect of Pravastatin on MI and CHD", "setting": "WOSCOPS patients; hCV3054813 genotype CT", "result": 0.51},
      {"measurement": "OR, Effect of Pravastatin on MI and CHD", "setting": "WOSCOPS patients; hCV3054813 genotype TT", "result": 0.95},
      {"measurement": "OR, Effect of Pravastatin on MI and CHD", "setting": "WOSCOPS patients; hCV29992177 genotype AA", "result": 0.71},
      {"measurement": "OR, Effect of Pravastatin on MI and CHD", "setting": "WOSCOPS patients; hCV29992177 genotype GA", "result": 0.54},
      {"measurement": "OR, Effect of Pravastatin on MI and CHD", "setting": "WOSCOPS patients; hCV29992177 genotype GG", "result": 2.55},
      {"measurement": "OR, Effect of Pravastatin on MI and CHD", "setting": "WOSCOPS patients; hCV30225864 genotype CC", "result": 0.67},
      {"measurement": "OR, Effect of Pravastatin on MI and CHD", "setting": "WOSCOPS patients; hCV30225864 genotype CT", "result": 0.54},
      {"measurement": "OR, Effect of Pravastatin on MI and CHD", "setting": "WOSCOPS patients; hCV30225864 genotype TT", "result": 0.78},
      {"measurement": "On-trial CHD", "setting": "PROVE-IT patients; ArgArg + ArgTrp, totals 509 (atorvastatin), 502 (pravastatin)", "result": "123 Number of patients"},
      {"measurement": "On-trial CHD", "setting": "PROVE-IT patients; TrpTrp, totals 359 (atorvastatin), 352 (pravastatin)", "result": "80 Number of patients"}
    ]}
  ]
}
